Experimental data as given in ChEMBL document CHEMBL3351598, “Strategies for the modulation of phase II metabolism in a series of PKCε inhibitors” (Bioorg Med Chem Lett, 2014).

Test: AUC in beagle dog at 10 mg/kg, iv bolus dose
Format: ADME, organism-based, Canis lupus familiaris
Set-up: dose 10 mg/kg, route intravenous
Settings: plasma

| AUC [ng·h/mL] | SMILES |
| --- | --- |
| 130 | N#CC1(c2cc(CCO)cc(-c3ccnc4[nH]nc(C(F)(F)F)c34)c2)CC1 |
| 4400 | N#CC1(c2cc(C[C@@H](O)CO)cc(-c3ccnc4[nH]nc(C(F)(F)F)c34)c2)CC1 |
